# Earlier results in US20160058814A1, “PLANT EXTRACTS AND RELATED COMPOSITIONS, METHODS AND SYSTEMS” (priority 2014, published 2016).
# Details: in vivo
structure (smiles),measurement,value
"O=c1ccc2ccccc2o1 [Coumarin, coumarin]",LD50,275 mg/kg
